Here are results for seven compounds from US20080213248A1, “Methods and Systems for Treating Asthma and Other Respiratory Diseases” (UNIVERSITY OF FLORIDA RESEARCH FOUNDATION, INC., priority 2004, published 2008).

The IC50 is the concentration at which inhibition is half-maximal.

Data set [1] addresses TRPM8 receptors. The note with it: previous in vitro studies; read-out: antagonistic potencies (IC50) for TRPM8 receptors; cited from earlier work.
Data set [2] relates to vagus ganglion neurons (VGNs). In words: Ca2+ imaging (Fluo-3) of acutely dissociated vagus ganglion neurons. The data set is classed as cell-based, rat. As to the method: In one embodiment, retrograde labeling of vagus ganglions or bronchopulmonary tissues is performed on a murine or rat model. […] Instillation of the nerve tracing dye in the lower part of mice trachea was performed and, after 7 days, the mice (or rats) were sacrificed and the vagus ganglions were harvested, dissociated, and plated in dishes. Calcium-imaging approach was then used to identify bronchopulmonary vagus afferent neuron response to cold and menthol. […] All the data were represented as mean ±SEM. Paired-t tests were used for statistical comparison, and significance was considered at the p<0.05. To perform calcium imaging, VGNs were incubated with 2 μM Fluo3-AM in 20% pluronic acid (Molecular Probes, Eugene, Oreg.) for 30 min at 37° C. to load Ca^2+ indicator. The cells were then perfused with normal bath solution flowing at 1 ml/min in a 0.5 ml chamber. The normal bath solution contained (in mM): 150 NaCl, 5 KCl, 2 MgCl2, 2 CaCl2, 10 glucose, 10 HEPES, pH 7.2, osmolarity adjusted to 320 mOsm with sucrose. Fluo-3 fluorescence in the cells was detected using a peltier-cooled charge-coupled device (CCD) camera (PentaMAX-III System, Roper Scientific, Trenton, N.J.) under a fluorescent microscope (10× objective). Excitation was at 450 nm and emission at 550 nm, achieved by a fluorescence filter sets. Images were taken at one frame per second, and digitized using MetaFluor software (Universal Imaging Corporation). Unless otherwise indicated, all experiments were carried out at an ambient temperature of 26° C. Effects of cold on intracellular Ca^2+ levels were tested by application of a cold bath solution, which yield temperature drop from 26° C. to 19° C. within 1 min in the recording chamber. […] In a related embodiment, Adult Sprague-Dawley rats (200 to 300 g, n=48) were used according to the Institutional Animal Care and Use Committee guideline of the University of Florida. The rats were continuously anesthetized with isoflurane using an anaesthetizing machine. To retrograde label the vagus ganglion neurons that innervate low airway tissues, a 20 μl-DiI was instilled into the caudal region of the trachea in living adult rats (see FIG. 1a, which illustrates the instillation of DiI into the lower segment of rat trachea to retrograde label airway VGNs). The animals were positioned supine during dye instillation and kept the same position for 30 min before recovery from anesthesia. […] The neurons were plated on glass coverslips previously covered with PDL and used within 4 hours after plating.

Data set [3] has as its system vagus ganglion neurons (VGNs). In words: Whole-cell patch-clamp recordings (voltage-clamp and current-clamp) on menthol-responsive VGNs. The data set is classed as cell-based, rat.
Another data set deals with rats. Description: Inhalation of menthol, respiratory reaction. The data set is classed as in vivo, rat.
In data set [4] the target is T1, TRPM8 receptors (Rattus norvegicus, UniProt Q8R455).
T1 construct: increase in number of TRPM8-expressing neurons in cell culture when in the presence of nerve growth factor (NGF); endogenous in cells; host or cells: cultured sensory neurons
T1 sequence (Q8R455 whole entry): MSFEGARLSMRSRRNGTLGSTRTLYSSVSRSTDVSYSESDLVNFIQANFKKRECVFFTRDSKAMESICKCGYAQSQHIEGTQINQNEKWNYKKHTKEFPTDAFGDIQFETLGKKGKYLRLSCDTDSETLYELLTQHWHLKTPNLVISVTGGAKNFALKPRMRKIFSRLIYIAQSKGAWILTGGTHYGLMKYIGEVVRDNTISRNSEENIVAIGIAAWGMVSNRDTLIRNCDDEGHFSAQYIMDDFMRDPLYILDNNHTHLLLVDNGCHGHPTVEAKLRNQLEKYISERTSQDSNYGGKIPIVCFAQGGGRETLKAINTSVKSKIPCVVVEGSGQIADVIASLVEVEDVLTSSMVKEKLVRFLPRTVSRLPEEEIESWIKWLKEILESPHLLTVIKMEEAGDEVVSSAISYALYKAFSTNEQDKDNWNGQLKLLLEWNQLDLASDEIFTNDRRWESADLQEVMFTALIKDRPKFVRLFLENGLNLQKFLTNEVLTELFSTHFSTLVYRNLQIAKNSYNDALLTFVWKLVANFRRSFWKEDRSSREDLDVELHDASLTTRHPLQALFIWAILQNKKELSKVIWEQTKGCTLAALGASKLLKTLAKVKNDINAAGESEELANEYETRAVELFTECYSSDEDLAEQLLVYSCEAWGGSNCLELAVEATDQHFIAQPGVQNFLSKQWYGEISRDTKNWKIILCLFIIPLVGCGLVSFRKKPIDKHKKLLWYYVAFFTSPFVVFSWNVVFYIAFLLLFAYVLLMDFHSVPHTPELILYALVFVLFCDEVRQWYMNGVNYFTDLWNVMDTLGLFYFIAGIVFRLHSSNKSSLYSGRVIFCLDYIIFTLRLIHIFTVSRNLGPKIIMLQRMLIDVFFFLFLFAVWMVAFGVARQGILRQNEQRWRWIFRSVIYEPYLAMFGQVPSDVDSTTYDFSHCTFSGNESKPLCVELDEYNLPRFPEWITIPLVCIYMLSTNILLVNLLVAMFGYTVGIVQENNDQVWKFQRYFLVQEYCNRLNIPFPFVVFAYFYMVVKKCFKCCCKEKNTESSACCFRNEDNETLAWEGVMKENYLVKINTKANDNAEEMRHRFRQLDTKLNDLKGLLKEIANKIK
Description: TRPM8 expression in cultured sensory neurons in the presence of NGF. Format: cell-based. The following applies: NGF present. The text has this:
Inflammation in lung tissues often can result in the increases the levels of nerve growth factor (NGF). […] Upregulation of TRPM8 receptors on these nerves can sensitize their responses to cold stimulation. FIGS. 8a and 8b illustrate the numbers of TRPM8 expression neurons and the responsiveness of these neurons to the TRPM8 ligand menthol. Specifically, FIG. 8a is a graphical illustration of an increase in number of TRPM8-expressing neurons in cell culture when in the presence of nerve growth factor (NGF). […] is a graphical illustration of the response of TRPM8-expressing neurons to the TRPM8 receptor agonist menthol when cultured in the presence or absence of NGF. The one day cultures were used in the absence of NGF.
Inflammatory reactions in bronchopulmonary tissues of asthma animals are known to result in an increased level of nerve growth factor (NGF). […] An up-regulation of TRPM8 receptors in inflammatory bronchopulmonary tissues will make animals more susceptible to cold.

As to `NCCOB(c1ccccc1)c1ccccc1` [2-APB, 2-aminoethoxydiphenyl borate], the half-maximal inhibitory concentration (IC50) on TRPM8 receptors [1] was about 50 µM.

Turning to `Nc1ncnc2c1ncn2[C@@H]1O[C@H](COP(=O)(O)OP(=O)(O)OP(=O)(O)O)[C@@H](O)[C@H]1O` [ATP], the “ATP sensitivity of menthol-responsive VGNs” value in data set [2] (Ca2+ imaging, menthol and ATP responses) is listed as “almost all menthol-responsive VGNs were ATP-sensitive”.

With `CC(C)(C)c1ccc(NC(=O)N2CCN(c3ncccc3Cl)CC2)cc1` [BCTC, N-(4-Tertiarybutylphenyl)-4-(3-cholorphyridin-2-yl)tetrahydropyrazine-1(2H)-carbox-amide], the IC50 at TRPM8 receptors [1] was 0.8 ± 1 µM.

On to `Oc1cc2c(cc1O)CN(C(=S)NCCc1ccc(Cl)cc1)CCC2` [capsazepine], for which the concentration for half-maximal inhibition (IC50) on TRPM8 receptors [1] is 18 ± 1.1 µM.

For the compound `CC1CCC(C(C)C)C(O)C1` (stereo not shown) [menthol], the “membrane potential after depolarization by menthol” value in data set [3] (menthol 100 μM, 20 s, current-clamp, from resting potential 60±0.6 mV, n=4) stood at 38±1.5 mV. The compound further gave a menthol-evoked inward current in data set [3] (menthol 100 μM, 20 s, voltage-clamp, held at −70 mV, n=7) of 191±29 pA. Besides, the action potential firing entry is on record as “action potentials elicited” in data set [3] (menthol 100 μM, current-clamp) and “caused action potential firing” in data set [3] (menthol 100 μM, current-clamp, listed as Menthol). For the same compound, the “reversal potential of menthol-evoked currents” value in data set [3] (voltage ramp, strong outward rectification, n=4) is −2±0.3 mV. Moreover, in data set [2] (27 of 170 DiI-labeled cells, menthol 100 μM, cold 26 to 19° C.), the “DiI-labeled cells both menthol- and cold-responsive” value came out at 16%. The “DiI-labeled cells showing response to menthol” value in data set [2] (menthol 100 μM, 20 s, 28 of 170 DiI-labeled cells) was found to be 17%. Also, the “VGNs with increases of intracellular Ca2+” value in data set [2] (menthol 100 μM, 20 s, 116/1638 cells, DiI-labeled and non-labeled, response ΔF/F0 >0.1) is given as 7%. The “respiratory reaction on inhalation” value with rats (menthol 1 μM) is listed as “respiratory reaction is not obvious”; with rats (menthol 1 mM, n=3), “results in a breathing difficulty”.

As to `CC(C)(C)c1ccc(NC(=S)N2CCN(c3ncccc3Cl)CC2)cc1` [thio-BCTC], the IC50 on TRPM8 receptors [1] was 3.5 ± 1.1 µM.

Turning to NGF: nerve growth factor, the TRPM8 receptor expression entry with TRPM8 receptors [4] is “up-regulated”.
